The subject of this series is subcutaneous tissue. The settings on record: dog, in vivo. The method, then:
The adaptability to an organism was tested in respect of the medical adhesive according to one embodiment of the present invention.
Three incision each having a length of 2 cm in the direction of the body axis were formed on the back of a dog anesthetized with acepromazine (0.5 mg/Kg) and pentobarbital (25 mg/Kg), and each of the subcutaneous regions of the incision portions was enlarged with scissors so as to have a diameter of about 2 cm.
Three kinds of treatments (A), (B) and (C) given below were applied to each of the incision portions:
(A) Dimethyl sulfoxide used as a reference substance was injected in an amount of 0.5 ml, and irradiation with an ultraviolet ray was not performed.
(B) The adhesive was injected in an amount of 0.5 ml, and irradiation with an ultraviolet ray was not performed.
(C) The adhesive was injected in an amount of 0.5 ml, and irradiation with an ultraviolet ray was performed.
One week later, each portion was collected under a general anesthesia so as to carry out the histological analysis.

The structures appear in SMILES notation.

With `C[S+](C)[O-]` [(A) reference, Dimethyl sulfoxide], the “Adaptability to organism (recognition as foreign matter)” value is reported as “recognized as a foreign matter within the organism”; the Clinical inflammation reaction entry is reported as “not recognized”; the “Inflammation reaction, histological” value is reported as “prominent histologically”. In addition, for the setting “sc”, the “Clinical inflammation reaction (pain), Second day” value is reported as “±” and the “Clinical inflammation reaction (pain), Third day” value is on record as “−”.

The values are drawn from patent publication US20050112182A1, “Medical adhesive and medical covering agent using ultraviolet ray curable chitosan derivative” (priority 2003, published 2005).
